Measured values taken from EPA's ToxRefDB 2.
Structures can show the parent of a compound that is named as a salt.

How the values were obtained:
[1] = system: mouse; settings: Subchronic oral toxicity in rodents, b6c3f1, Water, dose end: 14 week, group: systemic
[2] = system: rat; settings: Subchronic oral toxicity in rodents, fischer, Water, dose end: 14 week, group: systemic
[3] = system: mouse; settings: Subchronic oral toxicity in rodents, b6c3f1, Gavage/Intubation, dose end: 13 week, group: systemic, systemic / hematology / methemoglobin / methemoglobin + systemic / pathology microscopic / bone marrow / hemosiderosis + systemic / …
[4] = system: rat; settings: Subchronic oral toxicity in rodents, fischer, Gavage/Intubation, dose end: 13 week, group: systemic, systemic / hematology / anemia / anemia - macrocytic + systemic / hematology / erythrocyte (rbc) count differential / erythrocyte (rbc) + …
[5] = system: rat; settings: Subchronic oral toxicity in rodents, fischer, Feed, dose end: 13 week, group: systemic
[6] = system: mouse; settings: Subchronic oral toxicity in rodents, b6c3f1, Feed, dose end: 13 week, group: systemic, systemic / pathology microscopic / kidney / mineralization + systemic / in life observation / body weight / body weight gain
[7] = system: rat; settings: Carcinogenicity, fischer, Oral, Feed, dose end: 104 week, group: systemic
[8] = system: mouse; settings: Carcinogenicity; b6c3f1; Oral; Feed; dose end: 103 week; group: systemic; systemic / in life observation / body weight / body weight + systemic / pathology microscopic / kidney / mineralization + systemic / …
[9] = system: rat; settings: Prenatal developmental toxicity study; other; Inhalation; Nose-Only; dose end: 16 GD; group: maternal; systemic / in life observation / body weight / body weight gain + systemic / in life observation / food consumption / food consumption
[10] = system: mouse; settings: Subchronic oral toxicity in rodents, b6c3f1, Feed, dose end: 13 week, group: systemic, systemic / in life observation / body weight / body weight
[11] = system: mouse; settings: Combined chronic toxicity/carcinogenicity; b6c3f1; Oral; Feed; dose end: 103 week; group: systemic; systemic / in life observation / body weight / body weight
[12] = system: rat; settings: Carcinogenicity; fischer; Oral; Feed; dose end: 103 week; group: systemic; systemic / pathology microscopic / pituitary gland / adenoma + systemic / pathology microscopic / pituitary gland / adenoma/carcinoma …
[13] = system: rat; settings: Subchronic oral toxicity in rodents, fischer, Feed, dose end: 13 week, group: systemic, systemic / pathology microscopic / liver / vacuolization
[14] = system: rat; settings: Combined chronic toxicity/carcinogenicity, fischer, Oral, Feed, dose end: 103 week, group: systemic
[15] = system: mouse; settings: Prenatal developmental toxicity study, cd1, Oral, Gavage/Intubation, dose end: 15 GD
[16] = system: mouse; settings: Carcinogenicity; b6c3f1; Oral; Feed; dose end: 103 week; group: systemic; systemic / in life observation / body weight / body weight
[17] = system: rat; settings: Prenatal developmental toxicity study, other, Oral, Gavage/Intubation, dose end: 15 GD
[18] = system: dog; settings: Chronic toxicity; beagle; Oral; Feed; dose end: 12 month; group: systemic; systemic / in life observation / body weight / body weight + systemic / in life observation / clinical signs / inappetence + systemic / in …
[19] = system: rat; settings: Multigenerational reproductive toxicity study, sprague dawley, Oral, Feed, dose end: 2 generation
[20] = system: rat; settings: Combined chronic toxicity/carcinogenicity; sprague dawley; Oral; Feed; dose end: 104 week; group: systemic; systemic / pathology microscopic / lung / foam cell aggregation + systemic / hematology / erythrocyte (rbc) count differential / erythrocyte…
[21] = system: rabbit; settings: Prenatal developmental toxicity study, new zealand white, Oral, Gavage/Intubation, dose end: 18 GD, group: maternal
[22] = system: mouse; settings: Subchronic oral toxicity in rodents, Feed, dose end: 28 day, group: systemic
[23] = system: mouse; settings: Subchronic oral toxicity in rodents, cd1, Feed, dose end: 13 week, group: systemic, systemic / clinical chemistry / alkaline phosphatase (alp/alk) / alkaline phosphatase (alp/alk) + systemic / pathology microscopic / liver…
[24] = systemic / organ weight / kidney / absolute + systemic / organ weight / kidney / relative to body weight + systemic / pathology microscopic…
[25] = systemic / organ weight / liver / absolute + systemic / organ weight / liver / relative to body weight + systemic / pathology microscopic / …
[26] = systemic / hematology / erythrocyte (rbc) count differential / erythrocyte (rbc) + systemic / hematology / hematocrit (hct) / hematocrit (…
[27] = systemic / hematology / hematocrit (hct) / hematocrit (hct) + systemic / hematology / hemoglobin (hgb) / hemoglobin (hgb) + systemic / organ…
[28] = systemic / pathology microscopic / kidney / mineralization
[29] = systemic / in life observation / body weight / body weight + systemic / pathology microscopic / kidney / hyperplasia + systemic / pathology …
[30] = systemic / pathology microscopic / kidney / hyperplasia + systemic / pathology microscopic / urinary bladder / hyperplasia + systemic / …
[31] = systemic / pathology microscopic / liver / fatty change
[32] = systemic / pathology microscopic / pituitary gland / adenoma + systemic / pathology microscopic / adrenal gland / pheochromocytoma nos + …
[33] = group: developmental, systemic / in life observation / body weight / fetal weight
[34] = group: maternal, systemic / in life observation / body weight / dam weight + systemic / in life observation / clinical signs / abnormal respiratory sounds + …
[35] = group: maternal, systemic / in life observation / body weight / body weight gain + systemic / in life observation / clinical signs / fur (altered appearance…
[36] = group: maternal, systemic / in life observation / body weight / body weight gain
[37] = group: offspring, developmental / offspring survival late / viability index / viability index + systemic / in life observation / body weight / offspring (pup…
[38] = group: offspring, systemic / in life observation / body weight / offspring (pup) weight
[39] = group: parental, systemic / in life observation / body weight / body weight + systemic / in life observation / body weight / body weight gain
[40] = group: parental, systemic / in life observation / body weight / body weight gain
[41] = reproductive / offspring survival early / live fetuses / live fetuses
[42] = systemic / pathology microscopic / liver / infiltration cellular

## CC(O)CCl (stereo not drawn) [1-Chloro-2-propanol]
[1]; [24]
  LOAEL: 340 mg/kg/day
  NOAEL: 170 mg/kg/day
[1]; [25]
  LEL: 7 mg/kg/day
  NEL: < 7 mg/kg/day
[2]; [26]
  LOAEL: 100 mg/kg/day
  NOAEL: 35 mg/kg/day
[2]; [27]
  LEL: 5 mg/kg/day
  NEL: < 5 mg/kg/day

## Nc1cccc(Cl)c1 [3-Chloroaniline]
[3]
  LEL: 10 mg/kg/day
  LOAEL: 40 mg/kg/day
  NEL: < 10 mg/kg/day
  NOAEL: 20 mg/kg/day
[4]
  LEL: 10 mg/kg/day
  LOAEL: 20 mg/kg/day
  NEL: < 10 mg/kg/day
  NOAEL: 10 mg/kg/day

## NCCCCCCCCCCC(=O)O [11-Aminoundecanoic acid]
[5]; systemic / pathology microscopic / kidney / hyperplasia + systemic / in life observation / body weight / body weight gain
  LOAEL: 900 mg/kg/day
[5]; systemic / pathology microscopic / kidney / hyperplasia + systemic / pathology microscopic / kidney / mineralization
  NOAEL: 750 mg/kg/day
[5]; [28]
  LEL: 450 mg/kg/day
  NEL: < 450 mg/kg/day
[6]
  LEL: 2250 mg/kg/day
  LOAEL: 2250 mg/kg/day
  NEL: 1800 mg/kg/day
  NOAEL: 1800 mg/kg/day
[7]; [29]
  LOAEL: 750 mg/kg/day
  NOAEL: 375 mg/kg/day
[7]; [30]
  LEL: 375 mg/kg/day
  NEL: < 375 mg/kg/day
[8]
  LEL: 1120 mg/kg/day
  LOAEL: 1120 mg/kg/day
  NEL: < 1120 mg/kg/day
  NOAEL: < 1120 mg/kg/day

## COS(=O)(=O)OC [Dimethyl sulfate]
[9]
  LEL: 0.7 ppm
  LOAEL: > 1.5 ppm
  NEL: 0.1 ppm
  NOAEL: ≥ 1.5 ppm

## CN(C)[C@@H]1C(=O)C(C(N)=O)=C(O)[C@@]2(O)C(=O)C3=C(O)c4c(O)cccc4[C@@](C)(O)[C@H]3[C@H](O)[C@@H]12.Cl [Oxytetracycline hydrochloride]
[10]
  LEL: 3750 mg/kg/day
  LOAEL: 7500 mg/kg/day
  NEL: 1880 mg/kg/day
  NOAEL: 3750 mg/kg/day
[11]
  LEL: 1400 mg/kg/day
  LOAEL: > 1400 mg/kg/day
  NEL: 650 mg/kg/day
  NOAEL: ≥ 1400 mg/kg/day
[12]
  LEL: 1250 mg/kg/day
  LOAEL: > 2500 mg/kg/day
  NEL: < 1250 mg/kg/day
  NOAEL: ≥ 2500 mg/kg/day
[13]
  LEL: 155 mg/kg/day
  LOAEL: > 2500 mg/kg/day
  NEL: < 155 mg/kg/day
  NOAEL: ≥ 2500 mg/kg/day
[14]; [31]
  LEL: 1000 mg/kg/day
  NEL: < 1000 mg/kg/day
[14]; [32]
  LOAEL: > 2000 mg/kg/day
  NOAEL: ≥ 2000 mg/kg/day
[15]; [33]
  LEL: 1320 mg/kg/day
  LOAEL: > 2100 mg/kg/day
  NEL: < 1320 mg/kg/day
  NOAEL: ≥ 2100 mg/kg/day
[15]; group: maternal, systemic / in life observation / body weight / dam weight
  LEL: 1670 mg/kg/day
[15]; [34]
  LOAEL: > 2100 mg/kg/day
  NEL: 1320 mg/kg/day
  NOAEL: ≥ 2100 mg/kg/day
[16]
  LEL: 1370 mg/kg/day
  LOAEL: > 1370 mg/kg/day
  NEL: 663 mg/kg/day
  NOAEL: ≥ 1370 mg/kg/day
[17]; [33]
  LEL: 1200 mg/kg/day
  LOAEL: 1200 mg/kg/day
  NEL: < 1200 mg/kg/day
  NOAEL: < 1200 mg/kg/day
[17]; [35]
  LEL: 1200 mg/kg/day
  LOAEL: > 1500 mg/kg/day
  NEL: < 1200 mg/kg/day
  NOAEL: ≥ 1500 mg/kg/day
[18]
  LEL: 125 mg/kg/day
  LOAEL: 125 mg/kg/day
  NEL: 50 mg/kg/day
  NOAEL: 50 mg/kg/day

## Oc1cc(Cl)ccc1Oc1ccc(Cl)cc1Cl [Triclosan]
[19]; [36]
  LEL: 150 mg/kg/day
  LOAEL: > 150 mg/kg/day
  NEL: 50 mg/kg/day
  NOAEL: ≥ 150 mg/kg/day
[19]; [37]
  LOAEL: 150 mg/kg/day
  NOAEL: 50 mg/kg/day
[19]; [38]
  LEL: 15 mg/kg/day
  NEL: < 15 mg/kg/day
[19]; [39]
  LOAEL: 150 mg/kg/day
  NOAEL: 50 mg/kg/day
[19]; [40]
  LEL: 15 mg/kg/day
  NEL: < 15 mg/kg/day
[20]
  LEL: 15 mg/kg/day
  LOAEL: 15 mg/kg/day
  NEL: < 15 mg/kg/day
  NOAEL: < 15 mg/kg/day
[21]; [41]
  LEL: 15 mg/kg/day
  NEL: < 15 mg/kg/day
[21]; systemic / in life observation / body weight / body weight + systemic / in life observation / food consumption / food consumption
  LOAEL: 150 mg/kg/day
[21]; systemic / in life observation / body weight / body weight + systemic / in life observation / food consumption / food consumption + …
  NOAEL: 50 mg/kg/day
[22]; systemic / clinical chemistry / alkaline phosphatase (alp/alk) / alkaline phosphatase (alp/alk) + systemic / clinical chemistry / alanine …
  LOAEL: 136 mg/kg/day
[22]; [42]
  LEL: 6.48 mg/kg/day
  NEL: < 6.48 mg/kg/day
[22]; systemic / pathology microscopic / liver / infiltration cellular + systemic / clinical chemistry / alkaline phosphatase (alp/alk) / alkaline…
  NOAEL: 6.48 mg/kg/day
[23]
  LEL: 25 mg/kg/day
  LOAEL: 25 mg/kg/day
  NEL: < 25 mg/kg/day
  NOAEL: < 25 mg/kg/day
